This passage reports IC50 results from US9556159B2, “Renin inhibitor” (MITSUBISHI TANABE PHARMA CORPORATION, priority 2012, dated 2017).

Molecules are shown by their SMILES.

For this assay, the target named is T1, Recombinant human renin (Homo sapiens, UniProt P00797).
T1 sequence (P00797 67-406): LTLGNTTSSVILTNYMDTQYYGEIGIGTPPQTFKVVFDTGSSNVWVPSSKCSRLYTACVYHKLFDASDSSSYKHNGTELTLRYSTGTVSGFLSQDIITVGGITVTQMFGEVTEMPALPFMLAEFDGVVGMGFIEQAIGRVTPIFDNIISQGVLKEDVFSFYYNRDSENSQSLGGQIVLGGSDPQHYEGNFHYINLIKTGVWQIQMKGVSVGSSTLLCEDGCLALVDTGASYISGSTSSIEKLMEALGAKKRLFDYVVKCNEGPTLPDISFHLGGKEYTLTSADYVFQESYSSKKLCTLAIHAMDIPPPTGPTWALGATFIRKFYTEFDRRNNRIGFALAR
Nature of the assay: Inhibitory activity against human renin (fluorogenic peptide substrate). The assay is classed as biochemical. The settings on record: 50% inhibitory concentration (IC50) against human renin, 37° C. for 1 hour.
One may read the IC50 as the midpoint of a concentration-inhibition curve. Turning to `COC(=O)NCCCc1sc([C@@H](C)N(C(=O)[C@H]2CNCCO2)C2CC2)cc1-c1ccccc1CO` [Example 435], the half-inhibitory concentration (IC50) was determined as 1.3 nM.
With `COCC(C)Oc1ncc(C(C)N(C(=O)C2CNCCO2)C2CC2)nc1CCCNC(=O)OC` (stereo not shown) [Example 436], the IC50 was determined as 2.2 nM.
To `COC(=O)NCCCc1sc([C@H](C)N(C(=O)[C@H]2CNCCO2)C2CC2)cc1Br` [Example 437] belongs 2.7 nM; to `COC(=O)NCCCc1sc([C@@H](C)N(C(=O)[C@H]2CNCCO2)C2CC2)cc1Br` [Example 438], 2.4 nM; to `COC(=O)NCCCc1nc([C@@H](C)N(C(=O)[C@H]2CNCCO2)C2CC2)sc1C(=O)Nc1ccccc1OC` [Example 439], 8 nM.
On to `COC(=O)NCCCc1cc(C(C)N(C(=O)[C@H]2CNCCO2)C2CC2)cnc1O[C@H]1CCOC1` (stereo partly shown) [Example 440], for which the 50% inhibitory concentration (IC50) was 1.9 nM.
As for `COC(=O)NCCCc1cc([C@@H](C)N(C(=O)[C@H]2CNCCO2)C2CC2)sc1C(C)=O` [Example 441], the figure is 0.8 nM; as for `COC(=O)NCCCc1nc([C@@H](C)N(C(=O)[C@H]2CNCCO2)C2CC2)cnc1N(C)C` [Example 442], 9.5 nM; as for `COC(=O)NCCCc1cc([C@@H](C)N(C(=O)[C@H]2CNCCO2)C2CC2)cnc1O[C@H]1CCOC1` [Example 443], 2 nM.
As for `COCCNc1ncc([C@@H](C)N(C(=O)[C@H]2CNCCO2)C2CC2)nc1CCCNC(=O)OC` [Example 444], the figure is 4.2 nM.
